Structures can show the parent of a compound that is named as a salt. Where two headings read alike, the source gives them in different places.

The test system of assay [1] is MLKL phosphorylation in HT29-L23 human colorectal adenocarcinoma cells. Put plainly: MLKL Phosphorylation High-Content Assay. It counts as cell-based. The conditions noted are these: necroptosis induced with TNFα, SMAC mimetic and Z-VAD, 6 h, read-out: pMLKL (IC50). In short, it runs like this:
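HT29-L23 cells pretreated 30 min at 37 °C with compound (6.25 to 0.106 μM final), then necroptosis induced with TNFα 35 ng/mL, SMAC mimetic 700 nM and Z-VAD 140 nM for 6 h. Fixed cells immunostained for MLKL pS358 and imaged; IC50 and Ymax from 4-parameter logistic fit.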

Assay [2] addresses His-GST-TVMV-hRIPK1(1-324) (Homo sapiens (Human), UniProt Q13546). Put plainly: RIPK1 HTRF Binding Assay. The conditions noted are these: HTRF binding, 1 h at rt; read-out: RIPK1 (IC50). The method in brief:
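HTRF probe-displacement binding: 1 nM His-GST-TVMV-hRIPK1(1-324) (baculovirus construct), 90.6 nM probe, 0.2 nM anti-GST-Tb in 20 mM HEPES, 10 mM MgCl2, 0.015% Brij-35, 4 mM DTT, 0.05 mg/mL BSA. Incubated 1 h at rt; FRET 520/495 nm ratio, inhibition relative to DMSO-only wells.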

Chain of His-GST-TVMV-hRIPK1(1-324) (Q13546 1-324): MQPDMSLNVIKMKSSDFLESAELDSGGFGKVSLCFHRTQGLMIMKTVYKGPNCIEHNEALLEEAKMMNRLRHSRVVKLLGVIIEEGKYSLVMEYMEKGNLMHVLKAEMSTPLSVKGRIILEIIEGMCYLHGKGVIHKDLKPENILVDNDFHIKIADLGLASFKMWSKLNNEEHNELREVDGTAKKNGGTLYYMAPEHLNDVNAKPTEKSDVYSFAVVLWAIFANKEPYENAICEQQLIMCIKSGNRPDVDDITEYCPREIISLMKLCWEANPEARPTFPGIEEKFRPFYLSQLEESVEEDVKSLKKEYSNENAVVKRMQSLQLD

As for `[2H]C([2H])([2H])Oc1ncc(-c2ccc3nc(NC(C)=O)cn3n2)cc1C(=O)NC(C)c1ccccc1OC(F)(F)F` (stereo not shown) [Example 57, 5-{2-acetamidoimidazo[1,2-b]pyridazin-6-yl}-2-(D3)methoxy-N-{1-[2-(trifluoromethoxy)phenyl]eth-yl}pyridine-3-carboxamide], the results for the IC50 in assay [1] and in assay [2] were 25 nM and 10 nM, respectively.
In the case of `[2H]C([2H])([2H])Oc1ncc(-c2ccc3nc(NC(C)=O)cn3n2)cc1C(=O)NCc1cc(OC(F)(F)F)ccc1F` [Example 58, 5-{2-acetamidoimidazo[1,2-b]pyridazin-6-yl}-N-{[2-fluoro-5-(trifluoromethoxy)phenyl]methyl}-2-(D3)methoxypyridine-3-carboxamide], the IC50 is 21 nM in assay [1] (Homo sapiens) and 14 nM in assay [2].
`CC(=O)Nc1cn2nc(-c3cc(C(=O)NCc4cc(F)cc(F)c4OC4CCCOC4)c(C)nc3C)ccc2n1` (stereo not shown) [Example 59, N-{[3,5-difluoro-2-(oxan-3-yloxy)phenyl]methyl}-5-{2-acetamidoimidazo[1,2-b]pyridazin-6-yl}-2,6-dimethylpyridine-3-carboxamide]: the figures for the IC50 in assay [1] (Homo sapiens) and in assay [2] were 17 nM and 12 nM, respectively.
The matching figures for `CC(=O)Nc1cn2nc(-c3cc(C(=O)NCc4cc(F)cc(F)c4O[C@H]4CCOC4)c(C)nc3C)ccc2n1` [Example 60, N-({3,5-difluoro-2-[(3S)-oxolan-3-yloxy]phenyl}methyl)-5-{2-acetamidoimidazo[1,2-b]pyridazin-6-yl}-2,6-dimethylpyridine-3-carboxamide]: 26 nM and 6 nM.
In the same order, the values of `CC(=O)Nc1cn2nc(-c3cc(C(=O)NCc4cc(F)cc(F)c4O[C@@H]4CCOC4)c(C)nc3C)ccc2n1` [Example 61, N-({3,5-difluoro-2-[(3R)-oxolan-3-yloxy]phenyl}methyl)-5-{2-acetamidoimidazo[1,2-b]pyridazin-6-yl}-2,6-dimethylpyridine-3-carboxamide] are 258 nM and 33 nM.
The matching figures for `CC(=O)Nc1cn2nc(-c3cc(C(=O)NCc4cc(F)cc(F)c4OC4CCOC(C)C4)c(C)nc3C)ccc2n1` (stereo not shown) [Example 62, N-({3,5-difluoro-2-[(2-methyloxan-4-yl)oxy]phenyl}methyl)-5-{2-acetamidoimidazo[1,2-b]pyridazin-6-yl}-2,6-dimethylpyridine-3-carboxamide]: 29 nM and 11 nM.
In the case of `CC(=O)Nc1cn2nc(-c3cc(C(=O)NCc4cccc(F)c4OC4C[C@@H](C)O[C@@H](C)C4)c(C)nc3C)ccc2n1` (stereo partly drawn) [Example 63, N-[(2-{[(2R,6S)-2,6-dimethyloxan-4-yl]oxy}-3-fluorophenyl)methyl]-5-{2-acetamidoimidazo[1,2-b]pyridazin-6-yl}-2,6-dimethylpyridine-3-carboxamide], the IC50 in assay [1] (Homo sapiens) turned out to be 340 nM; in assay [2], 149 nM.
As for `CC(=O)Nc1cn2nc(-c3cc(C(=O)NCc4cc(F)cc(F)c4OC4CC(C)OC(C)C4)c(C)nc3C)ccc2n1` (stereo not shown) [Example 64, N-({2-[(2,6-dimethyloxan-4-yl)oxy]-3,5-difluorophenyl}methyl)-5-{2-acetamidoimidazo[1,2-b]pyridazin-6-yl}-2,6-dimethylpyridine-3-carboxamide], the IC50 in assay [1] (Homo sapiens) came out at 45 nM; in assay [2], 49 nM.
In the same order, the values of `CC(=O)Nc1cn2nc(-c3cc(C(=O)NCc4ncccc4OCC(F)(F)F)c(C)nc3C)ccc2n1` [Example 65, 5-{2-acetamidoimidazo[1,2-b]pyridazin-6-yl}-2,6-dimethyl-N-{[3-(2,2,2-trifluoroethoxy)pyridin-2-yl]methyl}pyridine-3-carboxamide] are 374 nM and 44 nM.
The matching figures for `[2H]C([2H])(NC(=O)c1cc(-c2ccc3nc(NC(C)=O)cn3n2)c(C)nc1C)c1cc(F)cc(F)c1OC1CCOCC1` [Example 66, N-{[3,5-difluoro-2-(oxan-4-yloxy)phenyl](deutero)methyl}-5-{2-acetamidoimidazo[1,2-b]pyridazin-6-yl}-2,6-dimethylpyridine-3-carboxamide]: 8 nM and 9 nM.
In the case of `[2H]C([2H])([2H])[C@@H](NC(=O)c1cc(-c2ccc3nc(NC(C)=O)cn3n2)c(C)nc1C)c1cc(C(F)(F)F)ccc1F` [Example 67, 5-{2-acetamidoimidazo[1,2-b]pyridazin-6-yl}-N-[(1R)-1-[2-fluoro-5-(trifluoromethyl)phenyl](2,2,2-deutero)ethyl]-2,6-dimethylpyridine-3-carboxamide], the IC50 in assay [1] (Homo sapiens) and in assay [2] was 14 nM each time.
As to `CC(=O)Nc1cn2nc(-c3cc(C(=O)NCc4ccccc4OCC(F)(F)F)c(C)nc3C)ccc2n1` [Example 68, 5-{2-acetamidoimidazo[1,2-b]pyridazin-6-yl}-2,6-dimethyl-N-{[2-(2,2,2-trifluoroethoxy)phenyl]methyl}pyridine-3-carboxamide], the IC50 in assay [1] (Homo sapiens) was found to be 45 nM; in assay [2] it was 5 nM.
The matching figures for `CC(=O)Nc1cn2nc(-c3cc(C(=O)N[C@H](C)c4cc(C(F)(F)F)ccc4F)c(C)nc3C)ccc2n1` [Example 69, 5-{2-acetamidoimidazo[1,2-b]pyridazin-6-yl}-N-[(1R)-1-[2-fluoro-5-(trifluoromethyl)phenyl]ethyl]-2,6-dimethylpyridine-3-carboxamide]: 23 nM and 15 nM.
In the same order, the values of `[2H]C([2H])([2H])[C@@H](NC(=O)c1cc(-c2ccc3nc(NC(C)=O)cn3n2)c(C)nc1C)c1cc(OC(F)(F)F)ccc1F` [Example 70, 5-{2-acetamidoimidazo[1,2-b]pyridazin-6-yl}-N-[(1R)-1-[2-fluoro-5-(trifluoromethoxy)phenyl](2,2,2-deutero)ethyl]-2,6-dimethylpyridine-3-carboxamide] are 9 nM and 9 nM.
With `CC(=O)Nc1cn2nc(-c3cc(C(=O)N[C@H](C)c4cc(OC(F)(F)F)ccc4F)c(C)nc3C)ccc2n1` [Example 71, 5-{2-acetamidoimidazo[1,2-b]pyridazin-6-yl}-N-[(1R)-1-[2-fluoro-5-(trifluoromethoxy)phenyl]ethyl]-2,6-dimethylpyridine-3-carboxamide], the IC50 in assay [1] (Homo sapiens) turned out to be 13 nM; in assay [2], 5 nM.
In the same order, the values of `CC(=O)Nc1cn2nc(-c3cc(C(=O)NCc4cc(F)ccc4OCC(F)(F)F)c(C)nc3C)ccc2n1` [Example 72, 5-{2-acetamidoimidazo[1,2-b]pyridazin-6-yl}-N-{[5-fluoro-2-(2,2,2-trifluoroethoxy)phenyl]methyl}-2,6-dimethylpyridine-3-carboxamide, TFA] are 30 nM and 17 nM.
With `CC(=O)Nc1cn2nc(-c3cc(C(=O)NCc4cccc(OCC(F)(F)F)c4)c(C)nc3C)ccc2n1` [Example 73, 5-{2-acetamidoimidazo[1,2-b]pyridazin-6-yl}-2,6-dimethyl-N-{[3-(2,2,2-trifluoroethoxy)phenyl]methyl}pyridine-3-carboxamide], the IC50 came to 82 nM in assay [1] (Homo sapiens) and 57 nM in assay [2].
As to `[2H]C([2H])(NC(=O)c1cc(-c2ccc3nc(NC(C)=O)cn3n2)c(C)nc1C)c1cccc(C(F)(F)F)c1` [Example 74, 5-{2-acetamidoimidazo[1,2-b]pyridazin-6-yl}-2,6-dimethyl-N-{[3-(trifluoro-methyl)phenyl](deutero)methyl}pyridine-3-carboxamide, TFA], the IC50 was determined as 353 nM in assay [1] (Homo sapiens) and 63 nM in assay [2].
In the case of `[2H]C([2H])(NC(=O)c1cc(-c2ccc3nc(NC(C)=O)cn3n2)c(C)nc1C)c1cc(C(F)(F)F)ccc1F` [Example 75, 5-{2-acetamidoimidazo[1,2-b]pyridazin-6-yl}-N-{[2-fluoro-5-(trifluoromethyl)phenyl](deutero)methyl}-2,6-dimethylpyridine-3-carboxamide], the IC50 in assay [1] (Homo sapiens) worked out at 32 nM; in assay [2] it was 11 nM.
In the same order, the values of `[2H]C([2H])(NC(=O)c1cc(-c2ccc3nc(NC(C)=O)cn3n2)c(C)nc1C)c1cc(OC(F)(F)F)ccc1F` [Example 76, 5-{2-acetamidoimidazo[1,2-b]pyridazin-6-yl}-N-{[2-fluoro-5-(trifluorometh-oxy)phenyl](deutero)methyl}-2,6-dimethylpyridine-3-carboxamide] are 8 nM and 3 nM.
In the same order, the values of `CC(=O)Nc1cn2nc(-c3cc(C(=O)NCc4cc(F)cc(F)c4OC4COC4)c(C)nc3C)ccc2n1` [Example 77, N-{[3,5-difluoro-2-(oxetan-3-yloxy)phenyl]methyl}-5-{2-acetamidoimidazo[1,2-b]pyridazin-6-yl}-2,6-dimethylpyridine-3-carboxamide] are 265 nM and 17 nM.
The matching figures for `CC(=O)Nc1cn2nc(-c3cc(C(=O)NCc4cc(F)cc(F)c4OC4CCOCC4)c(C)nc3C)ccc2n1` [Example 78, N-{[3,5-difluoro-2-(oxan-4-yloxy)phenyl]methyl}-5-{2-acetamidoimidazo[1,2-b]pyridazin-6-yl}-2,6-dimethylpyridine-3-carboxamide]: 21 nM and 16 nM.
Consider `CC(=O)Nc1cn2nc(-c3cc(C(=O)NCc4cc(C(F)(F)F)ccc4F)c(C)nc3C)ccc2n1` [Example 80, 5-{2-acetamidoimidazo[1,2-b]pyridazin-6-yl}-N-{[2-fluoro-5-(trifluoromethyl)phenyl]methyl}-2,6-dimethylpyridine-3-carboxamide], for which the half-inhibitory concentration (IC50) in assay [1] (Homo sapiens) is 15 nM; in assay [2], 14 nM.

For the origin of these results see patent publication US11440913B2, “Aminoimidazopyridazines as kinase inhibitors” (BRISTOL-MYERS SQUIBB COMPANY, priority 2017, dated 2022).
